According to patent US20170014422A1 (SYNTHON B.V., priority 2014, published 2017):
Where a name gives a salt, the structure may show the parent alone.

Experiment: Laboratory observation of polymorphic transformation of polymorph IV in pharmaceutical compositions
Assay type: physicochemical
Conditions: especially in pharmaceutical compositions; more pronounced in humid environments

In the case of `COc1cc2c(cc1OC)CC(=O)N(CCCN(C)C[C@H]1Cc3cc(OC)c(OC)cc31)CC2` [ivabradine hydrochloride polymorph IV, 3-(3-{[((7S)-3,4-dimethoxybicyclo[4.2.0]octa-1,3,5-trien-7-yl)methyl]methylamino}propyl)-7,8-dimethoxy-1,3,4,5-tetrahydro-2H-3-benzazepin-2-one], the “Polymorphic stability over time” value is reported as “transforms over time into the more stable polymorph β”.
